Reference: the supplement of paper PMC10307832

How the values were obtained:
Assay in all cases: relative viability (nuclei count vs DMSO), 5 days (fraction); higher = more cells survive
OSI-027 + Phenformin = compound: COc1cccc2cc(-c3nc([C@H]4CC[C@H](C(=O)O)CC4)n4ncnc(N)c34)[nH]c12 [OSI-027] + N=C(N)NC(=N)NCCc1ccccc1 [Phenformin] (partner 250 µM)
Method in brief: (§1)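 Five library-drug doses in √10 steps were combined with a fixed anchor-drug dose, or a single drug was given alone, by pin tool to lung cancer cell lines in 1536-well plates the day after seeding. Nuclei were stained and counted after 5 days. Relative viability is the nuclei count in treated wells over that in vehicle wells, taken as the median of duplicate plates.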

Alpelisib + Luminespib = compound: Cc1nc(NC(=O)N2CCC[C@H]2C(N)=O)sc1-c1ccnc(C(C)(C)C(F)(F)F)c1 [Alpelisib] + CCNC(=O)c1noc(-c2cc(C(C)C)c(O)cc2O)c1-c1ccc(CN2CCOCC2)cc1 [Luminespib] (partner 0.01 µM)
Method in brief: as §1

Vemurafenib + Pictilisib = compound: CCCS(=O)(=O)Nc1ccc(F)c(C(=O)c2c[nH]c3ncc(-c4ccc(Cl)cc4)cc23)c1F [Vemurafenib] + CS(=O)(=O)N1CCN(Cc2cc3nc(-c4cccc5[nH]ncc45)nc(N4CCOCC4)c3s2)CC1 [Pictilisib] (partner 1 µM)
Method in brief: as §1

OSI-027 + Navitoclax = compound: COc1cccc2cc(-c3nc([C@H]4CC[C@H](C(=O)O)CC4)n4ncnc(N)c34)[nH]c12 [OSI-027] + CC1(C)CCC(c2ccc(Cl)cc2)=C(CN2CCN(c3ccc(C(=O)NS(=O)(=O)c4ccc(N[C@H](CCN5CCOCC5)CSc5ccccc5)c(S(=O)(=O)C(F)(F)F)c4)cc3)CC2)C1 [Navitoclax] (partner 0.5 µM)
Method in brief: as §1

Cell Line | relative viability (OSI-027 + Phenformin; first compound 0.01 µM) | relative viability (OSI-027 + Phenformin; first compound 0.03162 µM) | relative viability (OSI-027 + Phenformin; first compound 0.1 µM) | relative viability (OSI-027 + Phenformin; first compound 0.3162 µM) | relative viability (OSI-027 + Phenformin; first compound 1 µM) | relative viability (Alpelisib + Luminespib; first compound 0.04 µM) | relative viability (Alpelisib + Luminespib; first compound 0.1265 µM) | relative viability (Alpelisib + Luminespib; first compound 0.4 µM) | relative viability (Alpelisib + Luminespib; first compound 1.265 µM) | relative viability (Alpelisib + Luminespib; first compound 4 µM) | relative viability (Vemurafenib + Pictilisib; first compound 0.03162 µM) | relative viability (Vemurafenib + Pictilisib; first compound 0.1 µM) | relative viability (Vemurafenib + Pictilisib; first compound 0.3162 µM) | relative viability (Vemurafenib + Pictilisib; first compound 1 µM) | relative viability (OSI-027 + Navitoclax; first compound 0.01 µM) | relative viability (OSI-027 + Navitoclax; first compound 0.03162 µM) | relative viability (OSI-027 + Navitoclax; first compound 0.1 µM) | relative viability (OSI-027 + Navitoclax; first compound 0.3162 µM) | relative viability (OSI-027 + Navitoclax; first compound 1 µM)
NCI-H2085 | 0.727 | 0.701 | 0.704 | 0.623 | 0.503 | 0.504 | 0.419 | 0.46 | 0.415 | 0.364 | 0.421 | 0.458 | 0.664 | 0.416 | 1.11 | 1.12 | 1.1 | 0.931 | 0.7
NCI-H1755 | 0.615 | 0.696 | 0.594 | 0.569 | 0.451 | 0.352 | 0.415 | 0.418 | 0.42 | 0.395 | 0.342 | 0.347 | 0.314 | 0.381 | 1.01 | 0.968 | 0.988 | 0.753 | 0.279
PC-14 | 0.582 | 0.466 | 0.488 | 0.392 | 0.276 | 0.154 | – | 0.168 | 0.13 | 0.144 | 0.584 | – | 0.805 | 0.696 | 1.02 | 0.998 | 1.05 | 1.05 | 0.939
NCI-H3122 | 0.409 | 0.41 | 0.454 | 0.443 | 0.288 | 0.077 | 0.0664 | 0.0978 | 0.0788 | 0.0851 | 0.596 | 0.596 | 0.798 | 0.69 | 1.03 | 1.14 | 1.13 | 1.03 | 0.334
SK-LU-1 | 0.515 | 0.467 | 0.447 | 0.318 | 0.219 | 0.199 | 0.222 | 0.202 | 0.175 | 0.152 | 0.545 | 0.567 | – | 0.532 | 0.743 | 0.869 | 0.679 | 0.453 | 0.259
HCC-44 | 0.16 | 0.229 | 0.127 | 0.158 | 0.12 | 1.11 | 1.08 | 1.2 | 0.614 | 0.84 | 0.443 | 0.5 | 0.478 | 0.646 | 0.966 | 0.982 | 0.96 | 0.833 | 0.383
NCI-H460 | 0.656 | 0.648 | 0.567 | 0.542 | 0.224 | 0.0253 | 0.0415 | 0.0319 | 0.0281 | 0.0206 | 0.332 | 0.438 | 0.271 | 0.296 | 1.21 | 1.06 | 1.3 | 0.789 | 0.0638
NCI-H1915 | 0.38 | 0.38 | 0.359 | 0.381 | 0.32 | 0.738 | 0.725 | 0.829 | 0.643 | 0.766 | 0.751 | 0.903 | 0.908 | 0.85 | 0.831 | 0.779 | 0.809 | 0.801 | 0.85
NCI-H2126 | 0.527 | 0.555 | 0.437 | 0.405 | 0.404 | 0.946 | 0.848 | 0.854 | 0.776 | 0.667 | 0.494 | 0.4 | 0.572 | 0.471 | 0.885 | 0.856 | 0.818 | 0.679 | 0.801
EPLC-272H | 0.309 | 0.258 | 0.3 | 0.276 | 0.211 | 0.74 | 0.253 | 0.155 | 0.19 | 0.164 | 0.277 | 0.278 | 0.295 | 0.336 | 1.07 | 0.901 | 1.18 | 0.897 | 1.04
PC-3 [JPC-3] | 0.482 | 0.465 | 0.49 | 0.449 | 0.433 | 0.731 | 0.567 | 0.739 | 0.687 | 0.622 | 0.649 | – | 0.857 | 0.82 | 0.822 | 0.765 | 0.772 | 0.739 | 0.547
NCI-H2087 | 0.495 | 0.492 | 0.424 | 0.398 | 0.271 | 0.176 | 0.198 | 0.174 | 0.17 | 0.159 | 0.728 | 0.816 | – | 0.802 | 1.09 | 0.998 | 0.8 | 0.537 | 0.353
NCI-H1666 | 0.548 | 0.603 | 0.556 | 0.639 | 0.578 | 0.973 | 1.03 | 1.12 | 0.921 | 0.965 | 0.387 | – | 0.482 | 0.331 | 0.912 | 0.878 | 0.662 | 0.575 | 0.391
NCI-H2009 | 0.477 | 0.48 | 0.487 | 0.425 | 0.277 | 0.995 | 0.999 | 1.14 | 1.06 | 1.08 | 0.829 | 0.858 | 0.605 | 0.572 | 1.16 | 1.15 | 1.07 | 1.07 | 0.619
NCI-H2228 | 0.305 | 0.324 | 0.307 | 0.251 | 0.198 | 0.142 | 0.132 | 0.0885 | 0.101 | 0.144 | 0.32 | 0.362 | 0.684 | 0.358 | 0.978 | 1.34 | 0.81 | – | 0.303
SK-MES-1 | 0.637 | 0.608 | 0.64 | 0.576 | 0.305 | 0.675 | 0.561 | 0.733 | 0.527 | 0.464 | 0.322 | 0.192 | 0.354 | 0.347 | 1.27 | 1.23 | 1.17 | 0.974 | 0.484
LCLC-97TM1 | 0.477 | 0.459 | 0.332 | 0.246 | 0.306 | 0.852 | 0.707 | 0.705 | 0.279 | 0.23 | 0.195 | 0.194 | 0.39 | 0.149 | 0.36 | 0.331 | 0.381 | 0.214 | 0.159
